Key:
CD8^+CD40Ig Tregs = assay: MLR coculture: CD25 activation of CD8+CD40Ig Tregs with syngeneic pDCs and allogeneic peptides; format: cell-based, rat; settings: for upregulation of CD25 expression, fold vs. no peptide: 6 days culture, matured syngeneic pDCs, 120 μg/ml peptide
Protocol: (§1) For MLR coculture assays, pDCs from LEW.1A naive rats (1.25×10^4 cells), syngeneic CD8^+CD40Ig Tregs (5×10^4 cells) and 120 μg/ml of allogeneic peptides were plated in triplicate in 200 μl of complete RPMI-1640 medium in round-bottom 96 wells plates for 6 days at 37° C., 5% CO2. pDCs were matured with 0.5 μM of CpG ODN 1826.
(§2) Proliferation of CFSE-labeled naive CD4^+CD25^− T cells and phenotype of CD8^+CD45RC^low Tregs were analyzed by flow cytometry on a FACSCanto II cytometer (BD Biosciences, Mountain View, Calif.) after gating on TCR^+CD4^+ cells or TCR^+CD8^+ cells among live cells (DAPI negative).
For extracellular staining, cells were stained with the following mAbs: anti-TCRαβ (R73, Alexa Fluor 647-conjugated), anti-CD8α (OX8, PE-Cy7-conjugated, ebiosciences), anti-CD4 (W3.25, PE-Cy7-conjugated), anti-CD45RC (OX22, FITC-conjugated), anti-CD28 (JJ319, biotin-labeled), anti-CD71 (OX26, biotin-labeled), anti-mouse Vb11 (KT11, biotin-labeled, AbD Serotec) anti-CD25 (OX39, biotin-labeled) and anti-MHC-II (OX6, biotin-labeled).
(§3) All biotinylated mAbs were visualized using Streptavidin-PerCP.Cy5.5 (BD Biosciences). A FACSCanto II cytofluorimeter (BD Biosciences, Mountain View, Calif.) was used to measure fluorescence, and data were analyzed using FlowJo software (Tree Star, Inc. USA, version 7.6.5). Cells were first gated by their morphology and dead cells excluded by selecting DAPI negative viable cells.

[1] = test system: heart allograft in LEW.1A recipients; assay: Cardiac allotransplantation with in vivo peptide treatment; design: species or system rat; settings: for allograft survival: five i.v injections of 500 μg peptide, LEW.1W into LEW.1A, n=4
Protocol: Allotransplantations of heart were performed between whole MHC incompatible LEW.1W (RT1.A^u as donors) and LEW.1A (RT1.A^a as recipients) male rats as previously described (5). The experiments were approved by the regional ethical committee for animal experimentation.
16-mer peptides were dissolved in 0.4% DMSO/PBS before injection. For the first protocol, single doses of peptide (500 μg/injection) were injected i.v at different time points before and after transplantation at day −6, −3, 0 +3 and +7 into grafted LEW.1A recipients. In the second protocol, mini osmotic pumps (ALZET, Cupertino, Calif., USA) were implanted intraperitoneally (i.p) in recipients and delivered continuously either 20.83 or 41.66 μg/hour of 16-mer peptides for 14 days. A first pump was implanted on day −7 before transplantation and was replaced by a second one at day +7, allowing delivery of 14 or 28 mg of peptide per animal for 28 consecutive days. A depleting anti-CD8α mAb (OX8, IgG1, 3 mg/kg) or an anti-MHC class Ia and Ib mAb (OX18, 3 mg/kg) were injected i.p. twice a week from day −7 until rejection. Allografts were monitored daily by palpation and allograft rejection was defined as complete cessation of palpable heart beat.

[2] = test system: CD4^+ and CD8^+ T cells isolated from rejected untreated animals; settings: unmodified LEW.1A recipients, LEW.1W into LEW.1A; cited from earlier work
[3] = test system: donor-specific alloantibodies; assay: Donor specific alloantibody detection by cytofluorimetry; format: in vivo, rat; settings: long-term surviving Du51-treated recipients vs untreated or early rejecting
Protocol: Alloantibodies were analyzed by cytofluorimetry as described elsewhere (28). Briefly, after digestion by collagenase D and red blood cell lysis, allogeneic spleen cells were incubated with diluted (1/8) heat-inactivated serum, and then with FITC-conjugated goat anti-rat IgG antibodies (H+L chain specific) (Jackson Laboratories), a mouse anti-rat IgG1 MAb (MCA 194, Serotec), IgG2a (MCA 278, Serotec) or IgG2b (MCA 195, Serotec). […] Cells were analyzed using a FACS Canto II cytofluorimeter (BD Biosciences, Mountain View, Calif.) and the results were expressed as mean channel fluorescence for each serum.

CD8^+CD45RC^low Tregs = assay: Spleen cell populations by flow cytometry after peptide treatment; format: in vivo, rat; settings: long-term surviving Du51-treated recipients
Protocol: as §3
Tetramerization of RT1.A^a/Du51 was performed at room temperature by addition of streptavidin-PE (Jackson ImmunoResearch) or streptavidin-APC (BD Biosciences) at a 4:1-molar ratio, in four equal aliquots added at 15-min intervals. Likewise, the control tetramer RT1.A^a/MTF-E (ILFPSSERLISNR) was conjugated to streptavidin-BV421 (Biolegend) and represented 1.6+/−0.7% of non-specific staining among Du51-specific cells. These three reagents were mixed and added to plated cells at 10 μg/mL for 1 hour at 4° C. Cells were further stained for CD8 and CD45RC and fluorescence was analyzed on a FACSCanto II cytometer (BD Biosciences, Mountain View, Calif.). Cells were first gated by their morphology and dead cells excluded by selecting DAPI negative cells.

CD4^+CD25^− T cells = assay: Direct MLR suppressive assay (CFSE proliferation); format: cell-based, rat
Protocol: For direct MLR suppressive assays, sorted CFSE-labeled CD4^+CD25^− T cells from LEW.1A origin (5×10^4 cells) and allogeneic pDCs isolated from donor LEW.1W animals (1.25×10^4 cells) were plated in triplicate for 6 days in a final volume of 200 μl of completed RPMI-1640 medium in round-bottom 96 wells plates with FACS-sorted freshly purified naive CD8^+CD45RC^low Treg cells, peptide-expanded CD8^+CD40Ig Treg cells (5×10^4 cells), Du51 tetramer^+ or ^− CD8^+CD40Ig Tregs. For indirect MLR suppressive assay, splenocytes isolated from donor LEW.1W animals were frozen-thawed to induce apoptosis. Apoptotic cells were then cultured overnight with pDCs isolated from recipient LEW.1A animals (8:1 ratio) at 0.65×10^6 pDCs/mL. Alloantigens-loaded pDCs were finally washed and plated as described before for the direct MLR.
as §2

cardiac grafts = assay: Morphometric analysis of cardiac grafts (chronic rejection); format: in vivo, rat; settings: long-term surviving Du51-treated recipients
Protocol: The upper third of the graft was fixed in paraformaldehyde and embedded in paraffin. Five μm coronal sections were stained with hematoxylin-eosine-safron. Tissues were analyzed by a pathologist (K.R.) blinded to the groups and chronic rejection was evaluated as previously described (63).

[4] = test system: heart allograft in irradiated LEW.1A recipients; assay: Adoptive transfer of splenocytes from Du51-treated long-surviving recipients
Description: Total splenocytes (1.5·10^8 cells) were adoptively transferred i.v. the day before heart transplantation into naive LEW-1A recipients that had received 4.5 Gy of whole-body irradiation the same day. Recipients received splenocytes from Du51-treated rats (defined as 1st spl-transferred) or from naive rats (naive spl-transferred) or no cells (untreated irradiated).

[5] = test system: CD8^+CD40Ig Tregs and pDCs; assay: Cytokine ELISA in coculture supernatants after peptide stimulation; format: cell-based, rat; settings: 6 days peptide stimulation with pDCs, supernatant
Protocol: as §1
IFNγ, IL-10 were measured in coculture supernatants using ELISA from BD Biosciences OptEIA, IL-12 and TGFβ using ELISA from Invitrogen and R&D System respectively.

[6] = after 6 days of peptide stimulation

For “REEYARFDSDVGEYR (Synthetic 15-mer peptide 51-18)”, the “upregulation of CD25 expression, fold vs. no peptide” value (“upregulation … fold vs. no peptide” for short) (CD8^+CD40Ig Tregs) was 2.04±0.3 fold and the “activation / recognition by CD8+CD40Ig Tregs (CD25), in words” value (CD8^+CD40Ig Tregs; coculture with matured syngeneic pDCs, 6 days) was “not significantly different from that induced by Du51”.
With “YLRYDSDVGEYRAVTE [Bu31, sub-dominant peptide from donor MHC class II RT1.B^u]” the “upregulation … fold vs. no peptide” value (CD8^+CD40Ig Tregs) was 1.67±0.09 fold and the allograft survival [1] was 11 days.
With “NREEYARFDSDVGEYR (Synthetic Dominant peptide Du51)” the “upregulation … fold vs. no peptide” value (CD8^+CD40Ig Tregs) was 2.07±0.18 fold, the CD28 expression (CD8^+CD40Ig Tregs; [6]) was “upregulation” and the CD71 expression (CD8^+CD40Ig Tregs; [6]) was “upregulation”. The Foxp3 expression (CD8^+CD40Ig Tregs; [6]) was “no modification”, the “MHC class II expression” value (CD8^+CD40Ig Tregs; [6]) was “upregulation” and the “involvement in acute rejection of grafts” value [2] was “not involved in acute rejection”. For the same sequence, the “total IgG, IgG1, IgG2a and IgG2b alloantibodies production” value [3] was “total inhibition”, the “percentage and absolute number of total CD8+ T cells, in particular CD8+CD45RClow Tregs in spleen” value (CD8^+CD45RC^low Tregs) was “trend for an increase” and the “tetramer-positive Du51-specific Tregs in spleen” value (CD8^+CD45RC^low Tregs) was “trend for an increase”. For the same sequence, the “ex vivo suppressive activity of peptide-induced CD8+CD45RClow Tregs” value (CD4^+CD25^− T cells; Tregs from Du51-treated recipients) was “efficiently inhibit effector CD4^+ T cell proliferation”, the “proliferation of effector T cells with peptide-stimulated Tregs” value (CD4^+CD25^− T cells; Tregs stimulated 6 days with peptide, compared to non-activating peptide) was “significant inhibition” and the “signs of chronic rejection in graft” value (cardiac grafts) was “no signs of chronic rejection”. The “recipients with significant prolongation of allograft survival” value ([4]; 150·10^6 splenocytes from recipients treated with 1 mg/day Du51, irradiated secondary recipients) was 50%, the “anatomopathological status of graft” value ([4]; first adoptively transferred long term recipients) was “complete absence of vascular lesions and obstructions” and the “total IgG, IgG1 and IgG2b alloantibodies production” value ([4]; first adoptively transferred long-term recipients vs untreated) was “total inhibition”. The IFNγ expression [5] was “significant increased expression”, the IL-10 expression [5] was “no modification” and the IL-12 production [5] was “decreased”. The TGFβ expression [5] was “no modification”, the allograft survival [1] was 9.5 days and the indefinite allograft survival ([1]; i.p. mini-osmotic pumps 20.8 μg peptide per hour for 28 days from day -7) was 25%. The “indefinite allograft survival, recipients” value ([1]; osmotic pump 41.6 μg peptide per hour, LEW.1W donor hearts) was 80% and the “rejection of Brown Norway (BN) third party grafts, day after transplantation” value ([1]; osmotic pump 41.6 μg per hour, BN/LEW.1A) was 7 days.

Source: patent US10105425B2, “Isolated donor MHC-derived peptide and uses thereof” (INSERM (INSTITUT NATIONAL DE LA SANTÉ ET DE LA RECHERCHE …, priority 2014, dated 2018)
